Values of other authors as cited in US4925831A, “Aminoalkyl naphthalenediols as host resistance enhancers against viral infection” (priority 1987, dated 1990).
“Also recorded” adds a separate entry of the source. Where two headings read alike, the source gives them in different places.

Key:
[1] = in vivo
AIDS or ARC patients = details: result in words
HIV = details: result in words
[2] = system: HIV reverse transcriptase; details: result in words
[3] = not given; remark: listed apart in the source

lentinan
toxic side effects [1]: undesirable toxic side effects, such as granulomatous inflammation

ammonium 21-tungsto-9-antimoniate [HPA-23]
clinical efficacy (AIDS or ARC patients): no therapeutic benefit has been documented in AIDS patients
effect on HIV growth / infectivity (HIV): some tendency to check the growth of HIV

O=C(O)P(=O)(O)O [Foscarnet, trisodium phosphonoformate]
adverse / toxic effects, tolerability (human, in vivo): serious side effects
inhibition of HIV reverse transcriptase [2]: Inhibits HIV reverse transcriptase activity in vitro at levels pharmacologically acceptable in vivo

α-Interferon
clinical efficacy (AIDS or ARC patients): induced tumor regression in some AIDS-related Kaposi's sarcoma cases
effect on HIV growth / infectivity (HIV): Checks the growth of HIV in vitro

NC(=O)c1ncn([C@@H]2O[C@H](CO)[C@@H](O)[C@H]2O)n1 [Ribavirin, 1β-D-ribofuranosyl-1,2,4-triazole-3-carboxamide]
clinical efficacy (AIDS or ARC patients): inhibited viral replication and improved immune function in AIDS patients

CO[C@H]1/C=C/O[C@@]2(C)Oc3c(C)c(O)c4c(c3C2=O)C2=NC3(CCN(CC(C)C)CC3)NC2=C(NC(=O)/C(C)=C\C=C\[C@H](C)[C@H](O)[C@@H](C)[C@@H](O)[C@@H](C)[C@H](OC(C)=O)[C@@H]1C)C4=O [Ansamycin, rifabutin]
clinical efficacy (AIDS or ARC patients): some efficacy in treating AIDS patients with an opportunistic infection caused by the bacterium Mycobacterium aviumintracellulare

Cc1cn([C@H]2C[C@H](N=[N+]=[N-])[C@@H](CO)O2)c(=O)[nH]c1=O [Azidothymidine, 3'-azido-3'-deoxythymidine]
clinical efficacy (AIDS or ARC patients): promise in prolonging lives of patients with AIDS or AIDS-related complex (ARC)
adverse / toxic effects, tolerability (clinical, result in words): some toxicity, with anemia and headaches
adverse / toxic effects, tolerability (clinical, result in words, listed as AZT): virtually no toxic effects
half-life in the body ([3]; in vivo): relatively short half-life in the body
oral absorption ([3]; oral): Well absorbed orally

krestin
toxic side effects [1]: undesirable toxic side effects, such as granulomatous inflammation

CC(C)(S)[C@@H](N)C(=O)O [D-Penicillamine, 3-mercapto-D-valine]
clinical efficacy (AIDS or ARC patients): Inhibits HIV reproduction in humans; also recorded: suppressed the virus
adverse / toxic effects, tolerability (human, in vivo): temporarily depressed T cell levels in 13 AIDS patients

Cc1ccc(C(=O)Nc2ccc(S(=O)(=O)O)c3cc(S(=O)(=O)O)cc(S(=O)(=O)O)c23)cc1NC(=O)c1cccc(NC(=O)Nc2cccc(C(=O)Nc3cc(C(=O)Nc4ccc(S(=O)(=O)O)c5cc(S(=O)(=O)O)cc(S(=O)(=O)O)c45)ccc3C)c2)c1 [Suramin]
clinical efficacy (AIDS or ARC patients): little or no evidence of clinical improvement or immunologic recovery
inhibition of HIV reverse transcriptase [2]: Potent inhibitor of HIV reverse transcriptase

CC(=O)Nc1ccc(C(=O)O)cc1.CC(=O)Nc1ccc(C(=O)O)cc1.CC(=O)Nc1ccc(C(=O)O)cc1.CC(O)CN(C)C.CC(O)CN(C)C.CC(O)CN(C)C.O=c1[nH]cnc2c1ncn2[C@@H]1O[C@H](CO)[C@@H](O)[C@H]1O [Inosine pranobex]
clinical efficacy (AIDS or ARC patients): improve immune function in ARC patients

CC(C)(N1CC1C#N)N1CC1C(N)=O (stereo not shown) [Azimexon]
clinical efficacy (AIDS or ARC patients): improvements in symptoms and immune function in patients with ARC but not AIDS
adverse / toxic effects, tolerability (clinical, result in words): only toxic effect was mild hemolysis
